Source: patent US9375411B2, “Uses and methods for the treatment of liver diseases or conditions” (Verlyx Pharma Inc., priority 2012, dated 2016)
Values joined by “and” are separate entries in the source; they are usually repeats but may differ in a detail not shown here. Equal values may be shown once. Read-outs that look alike come from different tables or passages of the source.

How the values were obtained:
[1] = system: GalN/LPS-induced liver injury; experiment: GalN/LPS fulminant liver injury survival study; assay type: in vivo; conditions: C57BL/6 mice; IP 30 minutes prior GalN/LPS; PENTAMIDINE 40 mpk, Decamidine 10 mpk
Description: In this experiment, the 8-hour survival rate for C57BL/6 mice is evaluated when treated or not with two different aromatic diamidines (pentamidine isethionate(C5) and decamidine isethionate (C10)). Both compounds were administered intraperitoneally at doses close to their MTD 30 minutes prior a GalN/LPS-induced liver injury.

[2] = Repeat dose oral capsule or intravenous infusion pharmacokinetics in blood; assay type: in vivo, Male Beagle Dogs; conditions: Beagle dogs, 2-h IV 4 mg/kg/day, Day 1, individual animals and Mean
Description: Pharmacokinetics Study in Male Beagle Dogs. Three oral formulations were tested.
In this example, the pharmacokinetics and biodistribution are studied in Male Beagle Dogs. The Dog is a relevant model since the elimination rate from the different organs, mainly the liver, are closer to that observed in man. Three oral formulations were tested and compared to the injectable formulation: […]
The test item dosing formulation was administered once daily as a 2-hour intravenous infusion via the saphenous and/or cephalic vein using an infusion pump, using a temporary peripheral vein catheter attached to a syringe, for 2 consecutive days. The dose volume was 4 mL/kg and the infusion rate was 2 mL/kg/hour for all animals. The actual volume administered to each animal was calculated and adjusted based on the most recent practical body weight of each animal. The catheter was flushed with 0.9% Sodium Chloride for Injection, USP (saline) in order to ensure that the whole intended dose was administered to the animals, after which the temporary catheter was removed and discarded.
The test item was administered twice daily (targeted time: 12 hours apart) by oral capsule administration for 3 consecutive days to fasted animals (at least 4 hours prior to dosing). Food was returned 2 hours post-dose.
The number of capsules to be administered to each animal was fixed to 2 capsules/animals/occasion. If needed, following dosing, the oral cavity was rinsed with an appropriate volume of reverse osmosis water to facilitate swallowing. The oral cavity was inspected following dosing to ensure that the capsules have been swallowed.

[3] = Repeated oral administration, tissue concentrations in mice; assay type: in vivo, Female Fox Chase SCID CB17 Mice
Description: In this experiment, mice from all groups were first injected with pentamidine via the IV route on Day 1 (5 mg/kg). Tissue concentrations were assessed 24 hours later (on Day 2), and weekly thereafter (Day 7 and 14) with no subsequent pentamidine administration. Starting on Day 2, groups 2 and 3 were given pentamidine once a day (QD) or twice a day (BID) respectively and tissue levels were measured 24 hours later (Day 3) and weekly thereafter for two weeks.

[4] = in vivo; conditions: male, Beagle, dog, liver, iv, 4 mg/kg/day
[5] = mice, PO 50 mg/kg
[6] = male, Beagle, dog, iv, 4 mg/kg/day
[7] = IV 5 mg/kg Day 1, then PO QD or BID

N=C(N)c1ccc(OCCCCCOc2ccc(C(=N)N)cc2)cc1 [pentamidine, pentamidine bis(2-hydroxyethanesulfonate)]
8-hour survival [1]: 83% | AUC % Extrap ([2]; 4 mg/kg/day): 22.12% and 18.04% and 19.13% and 48.74% and 43.8% and 19.89% | AUCINF ([2]; 4 mg/kg/day): 24.54 µM·h and 35.82 µM·h and 9.09 µM·h and 20.95 µM·h and 35.1 µM·h and 17.89 µM·h | AUClast ([2]; 4 mg/kg/day): 19.11 µM·h and 29.35 µM·h and 7.35 µM·h and 10.74 µM·h and 19.73 µM·h and 14.33 µM·h | CL ([2]; 4 mg/kg/day): 8 mL/min/kg and 5.5 mL/min/kg and 21.5 mL/min/kg and 9.33 mL/min/kg and 5.67 mL/min/kg and 11 mL/min/kg | Cmax ([2]; 4 mg/kg/day): 2200 nM and 2160 nM and 1740 nM and 1220 nM | MRTlast ([2]; 4 mg/kg/day): 45.29 h and 65.59 h and 6.36 h and 18.84 h and 30.73 h and 38.14 h | Tlast ([2]; 4 mg/kg/day): 120 h and 168 h and 24 h and 48 h and 72 h and 96 h | Tmax ([2]; 4 mg/kg/day): 2 h | Vz ([2]; 4 mg/kg/day): 26.52 L/kg and 18.59 L/kg and 22.93 L/kg and 32.19 L/kg and 33.41 L/kg | t1/2 ([2]; 4 mg/kg/day): 35.23 h | Cmax [2, 6]: 1430 nM | half-life [2, 6]: 47 h | Tmax ([2]; male, Beagle, dog, iv, 4 mg/kg/day, read-out: Tmax): 1 h | Vd ([2]; male, Beagle, dog, iv, 4 mg/kg/day, read-out: Vz): 32.5 L/kg | Cmax ([2]; male, dog): 1040 nM | Kidney levels, effect of oral administration [3, 7]: not affected by oral administration | liver concentrations under oral administration regimen [3, 7]: can be maintained to a desired concentration | Kidneys, lung and muscle concentrations, difference between groups with or without PO ([3]; IV 5 mg/kg Day 1, then none, PO QD or PO BID): no significant difference between groups | half-life [4]: ~672 h | Liver and kidney levels after PO administration versus blood [5]: several folds that of blood | muscle concentration after PO administration versus blood [5]: several folds the concentration found in blood
